Results as given in patent publication US4921941A, “Orally active antiandrogens” (Schering Corporation, priority 1987, dated 1990).

Experiments:
[1] = Plasma concentrations of flutamide active metabolite in rats after single oral doses of various esters (0-4 hours), gas-liquid chromatography; assay type: in vivo, male Sprague Dawley rats; settings: rat; for Relative Rank (0-4 hour area): oral, 0-4 hour area relative to flutamide = 1.00; for Area under the 0-4 hour plasma level curve of flutamide active metabolite (0-4 Hours) / Plasma concentration of flutamide active metabolite, 2 Hours / Plasma concentration of flutamide active metabolite, 4 Hours: single oral dose, normalized to a 5 mg/kg dose of flutamide active metabolite; for Plasma concentration of flutamide active metabolite, 2 Hours / Plasma concentration of flutamide active metabolite, 4 Hours: average of 2 animals
[2] = Plasma concentrations of flutamide active metabolite for up to 16 hours after administration of esters or flutamide; assay type: in vivo, rats; settings: rat; for 0-16 hr (area under the plasma level curve of flutamide active metabolite) / Plasma concentration of flutamide active metabolite, 0.5 hr / Plasma concentration of flutamide active metabolite, 1 hr / Plasma concentration of flutamide active metabolite, 2 hr / Plasma concentration of flutamide active metabolite, 4 hr / Plasma concentration of flutamide active metabolite, 8 hr / Plasma concentration of flutamide active metabolite, 16 hr: normalized to a 5 mg/kg dose of flutamide active metabolite; for Plasma concentration of flutamide active metabolite, 0.5 hr / Plasma concentration of flutamide active metabolite, 1 hr / Plasma concentration of flutamide active metabolite, 2 hr / Plasma concentration of flutamide active metabolite, 4 hr / Plasma concentration of flutamide active metabolite, 8 hr / Plasma concentration of flutamide active metabolite, 16 hr: average of 3 animals; for Relative Rank (0-16 hr): 0-16 hr area relative to flutamide = 1.00
Method: Plasma concentrations of the flutamide active metabolite were determined by gas-liquid chromatography in 300-350 gram male Sprague Dawley rats following single oral 5 mg/kg doses of the compounds listed. […]

| Compound | Relative Rank (0-4 hour area) [1] | Area under the 0-4 hour plasma level curve of flutamide active metabolite (0-4 Hours) [1] [ng·h/mL] | Plasma concentration of flutamide active metabolite, 2 Hours [1] [ng/mL] | Plasma concentration of flutamide active metabolite, 4 Hours [1] [ng/mL] | 0-16 hr (area under the plasma level curve of flutamide active metabolite) [2] [ng·h/mL] | Plasma concentration of flutamide active metabolite, 0.5 hr [2] [ng/mL] | Plasma concentration of flutamide active metabolite, 1 hr [2] [ng/mL] | Plasma concentration of flutamide active metabolite, 2 hr [2] [ng/mL] | Plasma concentration of flutamide active metabolite, 4 hr [2] [ng/mL] | Plasma concentration of flutamide active metabolite, 8 hr [2] [ng/mL] | Plasma concentration of flutamide active metabolite, 16 hr [2] [ng/mL] | Relative Rank (0-16 hr) [2] |
| --- | --- | --- | --- | --- | --- | --- | --- | --- | --- | --- | --- | --- |
| C[C@H](N)C(=O)NCC(=O)N(C)CC(=O)OC(C)(C)C(=O)Nc1ccc([N+](=O)[O-])c(C(F)(F)F)c1 [ala--gly--sar, L-alanyl-glycyl-N-methylglycine, [1-methyl-[[4-nitro-3-(trifluoromethyl)phenyl]aminocarbonyl]ethyl]ester] | 2.09 | 5020 | 1952 | 1115 | 17200 | 1079 | 2029 | 1365 | 1803 | 1005 | 423 | 2.08 |
| CNCC(=O)OC(C)(C)C(=O)Nc1ccc([N+](=O)[O-])c(C(F)(F)F)c1 [sar] | 1.52 | 3650 | 1345 | 958 |  |  |  |  |  |  |  |  |
| L-Proline-[1-methyl-[[4-nitro-3-trifluoromethyl)phenyl]aminocarbonyl]ethyl ]ester, hydrochloride | 1.46 | 3510 | 1059 | 1393 |  |  |  |  |  |  |  |  |

Further lines, results first:

| Relative Rank (0-4 hour area) [1] | Area under the 0-4 hour plasma level curve of flutamide active metabolite (0-4 Hours) [1] [ng·h/mL] | Plasma concentration of flutamide active metabolite, 2 Hours [1] [ng/mL] | Plasma concentration of flutamide active metabolite, 4 Hours [1] [ng/mL] | 0-16 hr (area under the plasma level curve of flutamide active metabolite) [2] [ng·h/mL] | Plasma concentration of flutamide active metabolite, 0.5 hr [2] [ng/mL] | Plasma concentration of flutamide active metabolite, 1 hr [2] [ng/mL] | Plasma concentration of flutamide active metabolite, 2 hr [2] [ng/mL] | Plasma concentration of flutamide active metabolite, 4 hr [2] [ng/mL] | Plasma concentration of flutamide active metabolite, 8 hr [2] [ng/mL] | Plasma concentration of flutamide active metabolite, 16 hr [2] [ng/mL] | Relative Rank (0-16 hr) [2] | Compound |
| --- | --- | --- | --- | --- | --- | --- | --- | --- | --- | --- | --- | --- |
| 1.00 | 2400 | 715 | 974 | 8270 | 210 | 322 | 614 | 722 | 649 | 236 | 1.00 | CC(C)C(=O)Nc1ccc([N+](=O)[O-])c(C(F)(F)F)c1 [H (flutamide), 2-methyl-N-[4-nitro-3-(trifluoromethyl)phenyl]propanamide, reference compound] |
| 2.66 | 6400 | 2277 | 1847 | 15600 | 1392 | 1907 | 1751 | 1170 | 1054 | 256 | 1.89 | CC(C)(OC(=O)[C@@H]1CCCN1C(=O)CNC(=O)[C@@H](N)CCCCN)C(=O)Nc1ccc([N+](=O)[O-])c(C(F)(F)F)c1.Cl.Cl [lys--gly--pro, L-lysyl-glycyl-L-proline-[1-methyl-[[4-nitro-3-(trifluoromethyl)phenyl]aminocarbonyl]ethyl]ester, dihydrochloride] |
| 1.44 | 3450 | 1103 | 1248 |  |  |  |  |  |  |  |  | CN(CC(=O)OC(C)(C)C(=O)Nc1ccc([N+](=O)[O-])c(C(F)(F)F)c1)C(=O)CNC(=O)[C@@H](N)CCCCN [lys--gly--sar, L-lysyl-glycyl-N-methylglycine, [1-methyl-[[4-nitro-3-(trifluoromethyl)phenyl]aminocarbonyl]ethyl]ester] |
